Data from patent publication US20260327263A1, “Anti-Bacterial Peptides” (priority 2023, published 2026).
Where “and” joins values, the source holds several entries; their conditions need not be identical. Identical values can stand only once. Entries after “also recorded” stand apart in the source; their conditions may differ. Where no end group is shown, it is not given here.

Experiments:
human keratinocytes = assay: 2D scratch assay, keratinocyte migration; assay type: cell-based
Experimental: Wound healing is directly associated with the migration speed of keratinocytes. The migration speed of human keratinocytes in presence of E1AM2, V8L (SEQ ID NO: 19), and Q19L variants is tested in comparison with pexiganan (SEQ ID NO: 54). Migration speed of human keratinocytes assessed in a 2D scratch assay at D 0 and D 2 timepoints. Decrease in wound area over time was measured by applying an ImageJ plugin ‘Wound Healing Size Tool’ on bright-field images. The change in wound area over the course of 48 hours was used as a measure of the migration speed of keratinocytes. Each value is the mean±SD (n=3). The p-value was calculated using ANOVA for multiple comparisons (Dunnett's multiple comparisons test). **** p<0.0001. *** p<0.001. ** p <0.01. * p<0.05. […] Both peptides healed wound faster within their respective MIC and MBC concentrations. […] SEQ ID NO: 27=Q19L; SEQ ID NO: 2=E1AM2; SEQ ID NO: 19=V8L.
Wound closure was compared with the untreated samples (circle, red highlight). For improved clarity, error bars have been omitted from this representation. […] Each value is the mean±SD (n=3). Statistical significance was assessed using ANOVA for multiple comparisons (Dunnett's multiple comparisons test). **** p<0.0001, *** p<0.001, ** p<0.01, *p<0.05, ns denotes nonsignificance, p >0.05.
Wound areas of the human keratinocyte culture were assessed in presence of peptides in a 2D scratch assay at the 0 hour, and 48-hour time points by applying an ImageJ plugin, ‘Wound Healing Size Tool’ on brightfield images. Quantification of wound width was calculated by obtaining the averaged Euclidean distance between each paired pixel at the lateral wound edges. The change in wound area over the course of 48 hours was used as a measure of the migration speed of keratinocytes.
Using the inverted BioTek Lionheart LX Automated Microscope, brightfield images were obtained at 4× magnification to observe the wound area at timepoints 0 (before treatment) and 48 hours-post treatment. Microscopy settings were maintained as focus offset (781.3 μm), illumination (2), integration Time (21) with no gain. To cover the entire well, montage images of four rows by three columns were stitched together by enabling the “image stitching” function and images were saved in tiff-format.

[1] = test system: mixed bacterial infection (PA, SA and ST); assay: Broth microdilution, mixed bacterial infection; assay type: cell-based; conditions: mixed infection
Experimental: Chronic wounds mostly present mixed infections where numerous pathogens colonize together.
Examination of the potency of modified short peptides against PA and SA strains was performed by using the broth microdilution protocol from the Clinical and Laboratory Standards Institute (CLSI) guidelines (CLSI 2012) as described. Briefly, five freshly plated bacteria colonies were grown in cation adjusted MH2 broth (BD Biosciences) in a shaker incubator at 37° C., 220 RPM. Cells were grown to an optical density (OD600) of ~0.2 measured using a Microplate Spectrophotometer (Molecular Devices Spectra Max Plus). 100 μL of microbial culture containing ~5×10^5 CFU/mL of bacteria in the respective broths were introduced into each well containing 100 μL of peptides and incubated overnight at 37° C. Next, to check the bactericidal effects, 100 μL from each well was transferred and spread on sterile MH2 agar plates. The plates were incubated overnight at 37° C. and the number of colonies forming units (CFU) were calculated the following day. Readings of bacteria grown in media without any treatments were normalized to 100% as media control. For the mixed infection study, three freshly plated bacteria colonies each from PA, SA and ST plates were grown together in cation adjusted MH2 broth and proceeded as described above.

fibroblasts (HFF-1) = assay: Cell proliferation assay, HFF-1 fibroblasts; assay type: cell-based; conditions: 24 h
[2] = test system: critical and high priority pathogens (WHO); assay: Antibacterial effect against WHO critical and high priority pathogens; assay type: cell-based; conditions: FIG. 10
[3] = test system: pathogens isolated from the infected tissues of DFU patients; assay: Antibacterial test on pathogens from infected DFU tissues; assay type: cell-based
Experimental: The varied colours and morphologies highlight the presence of multiple species and a diverse bacterial population within the infected tissues. Method: Freshly debrided infected tissues from DFU patients are weighed and immersed in 2 ml of MHB (Mueller-Hinton Broth) media for 48 hours to soften the tissues, facilitating the release of bacteria. These samples are subsequently sonicated for 1 minute at a 15A amplitude using a water bath sonicator to release the bacteria. The resultant slurry is plated on MHB media supplemented with 1.5% agar to isolate all bacteria. These bacterial isolates are then evaluated for their antibacterial efficacy following the CLSI (Clinical and Laboratory Standards Institute) guidelines.
In some examples, the effective bacteria killing concentration range for the variant peptides can be, but is not limited to at least about 1.5 μM, at least about 2 μM, at least about 2.5 μM, at least about 5 μM, at least about 7.5 μM, at least about 10 μM, at least about 12.5 μM, at least about 15 μM, at least about 15 μM, at least about 17.5 μM, at least about 20 μM, at least about 25 μM, at least about 35 μM, or at least about 45 μM. In one example, the effective biofilm disruption concentration ranges from about 1.5 μM-25 μM or 1.5 μM-50 μM. In another example, the concentration is between about 40 μM to 50 μM.

[4] = test system: Pseudomonas aeruginosa (PA); assay: Broth microdilution anti-bacterial assay (CLSI), Pseudomonas aeruginosa; assay type: cell-based, Pseudomonas aeruginosa (ATCC 14213); conditions: PA; for MIC: overnight, 37° C., ≥99% inhibition; for MBC: ≥99% killing
bacteria = assay: Comparison of lead peptide to standard of care (Table 16)
[5] = Comparison of AMPs in clinical trial with V8LQ19L (Table 13); conditions: ✓ / X

Substance: E1AM2: untagged (E1AM2), KKLLKKWVKLSKKALKLAQSL
- migration speed of keratinocytes (human keratinocytes; 48 h, E1AM2 3.125-12.5 μM, Q19L 3.125-6.25 μM): increase keratinocyte migration; also recorded: increased the migration speed of keratinocytes significantly
- MBC [1]: 6.25 µM

Substance: KKLLKKWLKLSKKALKLALSL-NH2 [V8LQ19L]
- HFF-1 proliferation (fibroblasts (HFF-1); certain concentrations): enhanced proliferation
- cytotoxicity to HFF-1 (fibroblasts (HFF-1); up to highest tested concentrations (peptide), 3% (H2O2)): noncytotoxic
- antibacterial effect against WHO priority pathogens [2]: potent fast-acting, broad-spectrum antibacterial effect
- MIC values against WHO priority pathogens (in words) ([2]; compared to pexiganan and antibiotics): the lowest minimum inhibitory concentration (MIC) values
- wound closure, 2D scratch (human keratinocytes; up to 16X MBC): did not impair wound healing
- elimination of pathogens in DFU tissue (in words) ([3]; FIG. 11): effective elimination of pathogens
- elimination of bacteria from DFU tissue ([3]; at 50 μM): over 99%
- MIC [4]: 1.56 µM
- MIC ([4]; listed as VBLQ19L): 1.58 µM
- MBC [4]: 1.56 µM
- MBC ([4]; listed as VBLQ19L): 1.58 µM and 1.56 µM
- AMR Prevention (bacteria): Yes
- Negligible Cytotoxicity (bacteria): Yes
- No Allergic/Adverse Reactions (bacteria): Yes
- Targeted bacteria-specific eradication (bacteria): Yes
- Wound Healing Support (bacteria): Yes
- Antibacterial Efficacy (bacteria; Broad- (spectrum continues on next line)): Broad-
- Broad spectrum activity [5]: ✓
- Healing support [5]: ✓
